Results reported in patent US4873265A, “Anti-infective methods and compositions” (priority 1988, dated 1989).
Values after ≈ are worked out from the molar mass of the structure shown. Like-named read-outs stand apart in the source and are kept apart here.

Columns and labels:
Type in all cases: cell-based
[1] = tested on: Micrococcus luteous; experiment: In vitro zone of inhibition screening, MIC, Micrococcus luteous; conditions: aqueous solution, seeded Mueller-Hinton agar, 24 hours at 35° C.; for MIC: Micrococcus, read-out: Minimum Inhibitory Concentration, ML
Protocol: (§1) The 2% solutions listed above were diluted further with sterile water, using serial half-step dilutions. Forty lambda of each were then pipetted onto seeded Mueller-Hinton agar plates. The agar plates were then incubated for 24 hours at 35° C. and zones of inhibition were then recorded. The Minimum Inhibitory Concentration (MIC) was the lowest concentration of the test material which produced a zone of inhibition against the organism.
(§2) Stock cutaneous strains of each organism were grown in Mueller-Hinton broth for 18 hours at 35° C. Plates were seeded with the 18 hour broth culture, allowed to air dry at room temperature (about 10 minutes) and then used for determination of zones of inhibition as outlined above.

[2] = tested on: Staphylococcus aureus; experiment: In vitro zone of inhibition screening, MIC, Staphylococcus aureus; conditions: aqueous solution, seeded Mueller-Hinton agar, 24 hours at 35° C.; for MIC: Staphylococcus aureus, read-out: Minimum Inhibitory Concentration, SA
Protocol: as §1, §2

[3] = tested on: Spores of T. Mentagrophytes; experiment: In vitro antimycotic activity, MIC, spores of T. mentagrophytes; conditions: for MIC: Trichophyton mentagrophytes, 96 h; for activity against T. mentagrophytes: in vitro, in words
Protocol: (§3) A laboratory propagated strain of C. albicans, originally isolated from an infected skin lesion of a patient, was grown in Mueller-Hinton broth for 18 hours at 35° C. Plates were then seeded with the broth culture and allowed to air-dry at room temperature (22° C.) for about 10-15 minutes. Forty lambda of the 2% aqueous solutions or of serial half-step dilutions in water were then pipetted onto the seeded Mueller-Hinton agar plates. The plates were then incubated for 24 hours at 35° C. and zones of inhibition were then recorded. The Minimum Inhibitory Concentration (MIC) was the lowest concentration of the test material which produced a zone of inhibition against the organism. The MIC for each test material (antihistamine) is listed in the enclosed table. Table 2 lists the MIC's against C. albicans while Table 3 lists the MIC's against in vitro-grown spores of the human pathogen T. mentagrophytes. This strain was isolated from a human infection and was grown on Sabourand-Dextrose agar for 2 weeks. The spores were collected by flooding the agar plates after the 2 week growth period with a 0.01% solution of Tween-80 (sorbitol ester) and then filtering the Tween solution through gauze mesh to collect the suspension of spores. Sabourand-Dextrose agar plates are then seeded with the spore suspension. After air-drying, 40 lambda of each test solution is pipetted onto the plates and the plates left to incubate for 4 days at 22° C.

[4] = tested on: Escherichia coli; experiment: In vitro zone of inhibition screening, MIC, Escherichia coli; conditions: for MIC: Escherichia coli
Protocol: as §1, §2

[5] = tested on: Pseudomonas aeroginosa; experiment: In vitro zone of inhibition screening, MIC, Pseudomonas aeroginosa; conditions: for MIC: Pseudomonas
Protocol: as §1, §2

[6] = tested on: Corenybacterium minutissimum; experiment: In vitro zone of inhibition screening, MIC, Corenybacterium minutissimum
Protocol: as §1, §2

[7] = tested on: Cutaneous Bacteria; experiment: In vitro zone of inhibition screening, overall (cutaneous bacteria); conditions: for Rank Order: highest inhibition (rank 1) to lowest (rank 5); for minimum inhibitory concentrations as low as: in vitro antibacterial testing, lowest MIC
Protocol: as §1, §2

[8] = tested on: C. albicans; experiment: In vitro antimycotic activity, MIC, C. albicans; conditions: for MIC: Candida albicans
Protocol: as §3

[9] = aqueous solution, Sabourand-Dextrose agar, 4 days at 22° C.
[10] = aqueous solution, seeded Mueller-Hinton agar, 24 hours at 35° C., read-out: Minimum Inhibitory Concentration, EC
[11] = aqueous solution, seeded Mueller-Hinton agar, 24 hours at 35° C., read-out: Minimum Inhibitory Concentration, PA
[12] = aqueous solution, seeded Mueller-Hinton agar, 24 hours at 35° C., read-out: Minimum Inhibitory Concentration, CM
[13] = aqueous solution, Mueller-Hinton agar, 24 hours at 35° C., read-out: MIC, C. albicans
[14] = aqueous solution, Mueller-Hinton agar, 24 hours at 35° C.
[15] = aqueous solution, Sabourand-Dextrose agar, 4 days at 22° C., read-out: MIC, spores of T. Mentagrophytes
[16] = aqueous solution, seeded Mueller-Hinton agar, 24 hours at 35° C.

SMILES	MIC, spores of T. Mentagrophytes [3, 9]	MIC [8, 13] [µg/mL]	MIC, C. albicans [8, 14]	MIC [3, 15] [µg/mL]	Rank Order [7]	minimum inhibitory concentrations as low as [7]	MIC [1] [µg/mL]	MIC [2] [µg/mL]	activity against T. mentagrophytes [3]	MIC [4, 10] [µg/mL]	MIC [5, 11] [µg/mL]	MIC [6, 12] [µg/mL]	other results
CN(C)CCOC(c1ccccc1)c1ccccc1 [Diphenhydramine, diphenhydramine]					1	0.25%							Minimum Inhibitory Concentration, ML [1]: 2.5 mg/mL; Minimum Inhibitory Concentration, SA [2]: 2.5 mg/mL; MIC ([3]; read-out: MIC, spores of T. Mentagrophytes, aqueous solution, Sabourand-Dextrose agar, 4 days at 22° C.): 10000 µg/mL (≈ 39.2 mM); MIC ([4]; 24 h, read-out: Minimum Inhibitory Concentration, EC, aqueous solution, seeded Mueller-Hinton agar, 24 hours at 35° C.): 2500 µg/mL (≈ 9.79 mM); MIC ([5]; 24 h, read-out: Minimum Inhibitory Concentration, PA, aqueous solution, seeded Mueller-Hinton agar, 24 hours at 35° C.): 5000 µg/mL (≈ 19.6 mM); MIC ([6]; 24 h, read-out: Minimum Inhibitory Concentration, CM, aqueous solution, seeded Mueller-Hinton agar, 24 hours at 35° C.): 2500 µg/mL (≈ 9.79 mM); MIC ([8]; 24 h, read-out: MIC, C. albicans, aqueous solution, Mueller-Hinton agar, 24 hours at 35° C.): 10000 µg/mL (≈ 39.2 mM)
CN(C)CCC(c1ccc(Cl)cc1)c1ccccn1 (stereo not shown) [Chlorpheniramine, chlorpheniramine]	No inhibition	20000 (≈ 72.8 mM)			2		5000 (≈ 18.2 mM)	10000 (≈ 36.4 mM)	ineffective	5000 (≈ 18.2 mM)	10000 (≈ 36.4 mM)	5000 (≈ 18.2 mM)	
CN(C)CCOC(C)(c1ccccc1)c1ccccn1 (stereo not shown) [Doxylamine]	No inhibition		No inhibition		5								
CN(C)CCOC(c1ccccc1)c1ccccc1 [Dimenhydrinate, dimenhydrinate]	20000 µg/mL		20000 µg/mL (≈ 78.3 mM)		3	0.5%							Minimum Inhibitory Concentration, ML [1]: 10.0 mg/mL; Minimum Inhibitory Concentration, SA [2]: 10.0 mg/mL; Minimum Inhibitory Concentration, EC [4, 16]: 5.0 mg/mL; Minimum Inhibitory Concentration, PA [5, 16]: 10.0 mg/mL; Minimum Inhibitory Concentration, CM [6, 16]: 5.0 mg/mL
CN(C)CCC(c1ccc(Br)cc1)c1ccccn1 (stereo not shown) [Brompheniramine, brompheniramine]		20000 (≈ 62.6 mM)		20000 (≈ 62.6 mM)	2	0.5-1%	5000 (≈ 15.7 mM)	10000 (≈ 31.3 mM)		5000 (≈ 15.7 mM)	10000 (≈ 31.3 mM)	3000 (≈ 9.4 mM)	

Continued, in another order:

MIC, spores of T. Mentagrophytes [3, 9]	MIC [8, 13] [µg/mL]	MIC, C. albicans [8, 14]	MIC [3, 15] [µg/mL]	SMILES	Rank Order [7]	minimum inhibitory concentrations as low as [7]	MIC [1] [µg/mL]	MIC [2] [µg/mL]	activity against T. mentagrophytes [3]	MIC [4, 10] [µg/mL]	MIC [5, 11] [µg/mL]	MIC [6, 12] [µg/mL]	other results
		No inhibition	20000 (≈ 70.1 mM)	COc1ccc(CN(CCN(C)C)c2ccccn2)cc1 [Pyrilamine]	4				showed activity	10000 (≈ 35 mM)		10000 (≈ 35 mM)	
No inhibition	20000 (≈ 71.8 mM)			Cc1ccc(/C(=C\CN2CCCC2)c2ccccn2)cc1 [Triprolidine, triprolidine]	3	0.5-1%	10000 (≈ 35.9 mM)	10000 (≈ 35.9 mM)	ineffective	5000 (≈ 18 mM)	10000 (≈ 35.9 mM)	5000 (≈ 18 mM)	
	20000 (≈ 78.3 mM)		20000 (≈ 78.3 mM)	CN(C)CCN(Cc1ccccc1)c1ccccn1 [Tripelennamine, tripelennamine]	3	0.5-1%	10000 (≈ 39.2 mM)	10000 (≈ 39.2 mM)		5000 (≈ 19.6 mM)	10000 (≈ 39.2 mM)	5000 (≈ 19.6 mM)	
